Reference: ChEMBL document CHEMBL1201862, “PubChem BioAssay data set” (2004)
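In this assay, cells in 96-well plates receive the compound at five concentrations for 48 hours. Endpoints are linearly interpolated between the surrounding concentrations. Here, GI50 denotes the concentration required for 50% inhibition of growth.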 Activity calls are given as the source filed them. Rule as the data show it: active = GI50 up to about 1.1 µM and inactive = higher.

Legend:
Assay in all cases: inhibition of tumour cell growth, NCI panel, 48 h
[1] = system: DU-145
[2] = system: HCC 2998
[3] = system: HL-60
[4] = system: HT-29
[5] = system: K562
[6] = system: LOX IMVI
[7] = system: MCF7
[8] = system: Malme-3M
[9] = system: OVCAR-8
[10] = system: PC-3
[11] = system: SF-268
[12] = system: SK-MEL-2
[13] = system: SN12C
[14] = system: SNB-19
[15] = system: SNB-75
[16] = system: SW-620
[17] = system: U-251
[18] = system: UACC-62
[19] = system: CAKI-1
[20] = system: SR

Measured: GI50

CCCCn1c(O)nc2c(N)ncnc21
inactive: [1] > 100 µM | [2] > 100 µM | [3] > 100 µM | [4] > 100 µM | [5] > 100 µM | [6] > 100 µM | [7] > 100 µM | [8] > 100 µM | [9] > 100 µM | [10] > 100 µM | [11] > 100 µM | [12] > 100 µM | [13] > 100 µM | [14] > 100 µM | [15] > 100 µM | [16] > 100 µM | [17] > 100 µM | [18] > 100 µM

OC(c1cc(-c2ccc(Cl)cc2)nc2ccccc12)C1CCCCN1 (stereo unspecified)
active: [6] 0.982 µM | [8] 0.873 µM
inactive: [19] 2.32 µM | [1] 1.74 µM | [2] 2.08 µM | [3] 2.39 µM | [4] 1.9 µM | [5] 1.48 µM | [7] 1.82 µM | [9] 2.08 µM | [10] 1.97 µM | [11] 2.02 µM | [12] 2.03 µM | [13] 1.75 µM | [14] 3.3 µM | [15] 2.43 µM | [16] 1.88 µM | [17] 1.84 µM | [18] 1.82 µM

CCCC1C(C#N)(C#N)C(C#N)=C(N)C1(C)C(C)=O (stereo unspecified)
inactive: [19] 10.1 µM | [1] > 100 µM | [2] > 100 µM | [3] 31.8 µM | [4] > 100 µM | [5] 37.3 µM | [6] > 100 µM | [7] > 100 µM | [8] 77.1 µM | [9] > 100 µM | [10] > 100 µM | [11] > 100 µM | [12] > 100 µM | [13] > 100 µM | [14] > 100 µM | [15] 4.42 µM | [16] > 100 µM | [17] > 100 µM | [18] > 100 µM

Cc1cc(-n2nnc(C(=O)O)c2-c2ccccc2)c2ccc(Cl)cc2n1
inactive: [19] > 100 µM | [1] > 100 µM | [2] > 100 µM | [3] > 100 µM | [4] > 100 µM | [5] 58.1 µM | [6] > 100 µM | [7] > 100 µM | [8] > 100 µM | [9] > 100 µM | [10] > 100 µM | [11] > 100 µM | [12] > 100 µM | [13] > 100 µM | [14] > 100 µM | [15] > 100 µM | [16] > 100 µM | [17] > 100 µM | [18] > 100 µM

ClC(Cl)(Cl)C(N1CCN(c2ccccc2)CC1)N1CCN(c2ccccc2)CC1
inactive: [19] > 100 µM | [1] > 100 µM | [4] > 100 µM | [5] > 100 µM | [6] > 100 µM | [7] > 100 µM | [8] > 100 µM | [9] > 100 µM | [10] > 100 µM | [11] > 100 µM | [12] > 100 µM | [13] > 100 µM | [14] > 100 µM | [15] > 100 µM | [20] 45 µM | [17] > 100 µM | [18] > 100 µM

COc1ccc(OCC(=N/NC(=O)c2ccncc2)/N=C/c2ccncc2)cc1
inactive: [19] > 100 µM | [1] > 100 µM | [2] > 100 µM | [3] 57.9 µM | [4] 57 µM | [5] 57.9 µM | [6] > 100 µM | [7] 54.6 µM | [8] > 100 µM | [9] > 100 µM | [10] > 100 µM | [11] > 100 µM | [12] > 100 µM | [13] > 100 µM | [14] > 100 µM | [16] 53.5 µM | [17] > 100 µM | [18] 53.6 µM

CNC(=O)C1CCC(=O)N1CN(C(C)=O)c1ccccc1 (stereo unspecified)
inactive: [19] > 100 µM | [1] > 100 µM | [4] > 100 µM | [5] > 100 µM | [6] > 100 µM | [7] > 100 µM | [8] > 100 µM | [9] > 100 µM | [10] > 100 µM | [11] > 100 µM | [12] > 100 µM | [13] > 100 µM | [14] > 100 µM | [15] > 100 µM | [20] 13.6 µM | [16] > 100 µM | [17] > 100 µM | [18] > 100 µM

O=C(O)CSc1ccc(N=C=S)cc1
inactive: [19] > 100 µM | [1] 75.2 µM | [2] 31.1 µM | [4] > 100 µM | [6] 48.6 µM | [7] 56 µM | [8] 27.4 µM | [9] 71.4 µM | [10] 73.3 µM | [11] 71.6 µM | [12] 73.3 µM | [13] 39.3 µM | [14] > 100 µM | [15] > 100 µM | [20] 3.43 µM | [16] > 100 µM | [17] 72.3 µM | [18] 61 µM
